In patent US20140378395A1, “Peptides for the Treatment of Hearing” (13Therapeutics, Inc., priority 2011, published 2014):

What was measured:
[1] = test system: TNF-α secretion from RAW264.7 cells; experiment: Inhibition of CpG-ODN-induced TNF-α secretion from RAW264.7 cells (ELISA); format: cell-based, murine; details: for activity compared with P13 (inhibition of TNF-α after stimulation of RAW264.7 cells with CpG): SAR, versus P13; for Percent Inhibition of TNF-α secretion, CpG Stimulation / Inhibition of TNF-α secretion (percent inhibition) / Percent Inhibition of TNF-α secretion: RAW264.7, 4 hours; for Percent Inhibition of TNF-α secretion, CpG Stimulation: 1.25 ug/ml CpG-ODN; for Inhibition of TNF-α secretion (percent inhibition) / Percent Inhibition of TNF-α secretion: 1 μg/ml CpG-ODN
Protocol: RAW264.7 cells were plated at 1.5×10^5 cells/well-3×10^5 cells/well in 48-well plates. After 24 hours, the cells were incubated with peptides at various concentrations at room temperature in triplicate either before, simultaneous with, or after activation with various PAMPs for 18 hours. Cell-free supernatants were analyzed for cytokines by ELISA, in quadruplicate. RAW264.7 cells were stimulated with either CpG-ODN (1 μg/ml or 1.25 μg/ml), LPS (about 1 ng/ml), Poly (I:C) (about 10 μg/ml), flagellin (about 5 ng/ml), or zymosan (about 10 μg/ml). Dose response curves were done with each PAMP to determine optimal stimulation concentration. For CpG-ODN stimulation, cells were incubated for 4 hours at 37° C., supernatants collected, and TNF-α measured by ELISA. Any cytokine involved in inflammatory disease mediated toll receptor signaling can be measured using similar assays.
The effect of several peptides on TNF-α secretion from RAW264.7 cells in response to stimulation by CpG-ODN was studied. Each peptide was initially tested at 3 concentrations, 37 μM, 22.2 μM, and 11.1 μM. […] The peptides were then tested at 11.1 μM, 7.4 μM, and 3.7 μM (Table 3). […] Cell viability was examined for each peptide at the concentrations tested for TNF-α inhibition.
Inhibition of TNF-α secretion by various T-peptides was examined. RAW264.7 cells were plated at 3×10^5 cells/well in 48-well plates. After 24 h the cells were incubated with peptide at various concentrations at room temperature in triplicate for 15 minutes and then stimulated with 1.25 ug/ml CpG-ODN or 1 ng/ml LPS. Cells were then incubated for 4 hours at 37° C., supernatants collected, and TNF-α measured by ELISA. Percent inhibition was calculated by comparing TNF-α secretion from cells incubated with peptide to control cells with no peptide treatment. The inhibitive effects of peptides T3 (SEQ ID NO: 319), T11 (SEQ ID NO: 327), T21 (SEQ ID NO: 337), T36 (SEQ ID NO: 352), T37 (SEQ ID NO: 353), T51 (SEQ ID NO: 367), and T52 (SEQ ID NO: 368) were compared to inhibition by an analogue of P13 (SEQ ID NO: 369) having a sequence of nine arginine residues at the C-terminus (P13-R^9 (SEQ ID NO: 378)). (Table 4).

[2] = test system: TNF-α secretion from RAW264.7 cells; experiment: as above; format: cell-based, murine; details: peptide 3.1 μM (Table 3), 1 μg/ml CpG-ODN, 4 hours

Sequence	activity compared with P13 (inhibition of TNF-α after stimulation of RAW264.7 cells with CpG) [1]	Percent Inhibition of TNF-α secretion, CpG Stimulation ([1]; peptide 7.1 μM) [%]	Percent Inhibition of TNF-α secretion, CpG Stimulation ([1]; peptide 11.1 μM) [%]	Percent Inhibition of TNF-α secretion, CpG Stimulation ([1]; peptide 22 μM) [%]	Inhibition of TNF-α secretion (percent inhibition) [2] [%]	Inhibition of TNF-α secretion (percent inhibition) ([1]; peptide 7 μM (Table 3)) [%]	Inhibition of TNF-α secretion (percent inhibition) ([1]; peptide 11 μM (Table 3)) [%]	Percent Inhibition of TNF-α secretion ([1]; peptide 11.1 μM) [%]	Percent Inhibition of TNF-α secretion ([1]; peptide 22.2 μM) [%]	Percent Inhibition of TNF-α secretion ([1]; peptide 37 μM) [%]
AIIKVYVYACIRRRRRRRRR [T52-R^9]	superior activity	97.8	99.2	100						
AIVKLTVYACIRRRRRRRRR [T51-R^9]	superior activity	94	98	99.7						
DIIKLTVYDCIRRRRRRRRR [T36-R^9]	superior activity	50	70	82						
DIVKLYVYDCIRRRRRRRRR [T21-R^9]	superior activity	69	90	98						
DIVKVTVYDCIRRRRRRRRR [T37-R^9]	superior activity	46	87	93						
EMFTILEEYFMYRGLLGLRIKRRRRRRRRR (C-terminal nona-arginine (R9)) [74(S10)-R^9]					35	80	92	91	100	100
EMFTILEEYFMYRGLLGLRIKYGRLFNEIRRRRRRRRR (C-terminal nona-arginine (R9)) [42(S1)-R^9]					37	67	83	85	96	97
EMFTILEEYFMYRGLLGLRIKYGRLFNRRRRRRRRR (C-terminal nona-arginine (R9)) [68(S4)-R^9]					69	83	95	95	100	100
EMFTILEEYFMYRGLLGLRIKYGRLFRRRRRRRRR (C-terminal nona-arginine (R9)) [69(S5)-R^9]					66	94	93	93	100	100
EMFTILEEYFMYRGLLGLRIKYGRLRRRRRRRRR (C-terminal nona-arginine (R9)) [70(S6)-R^9]					63	87	94	93	100	100
EMFTILEEYFMYRGLLGLRIKYGRRRRRRRRR (C-terminal nona-arginine (R9)) [72(S8)-R^9]					43	80	93	92	100	100
EMFTILEEYFMYRGLLGLRIKYGRRRRRRRRRR (C-terminal nona-arginine (R9)) [71(S7)-R^9]					21	29	38	56	82	91
EMFTILEEYFMYRGLLGLRIKYRRRRRRRRR (C-terminal nona-arginine (R9)) [73(S9)-R^9]					3	76	85	84	100	100
EMFTILEEYFMYRGLLGLRIRRRRRRRRR (C-terminal nona-arginine (R9)) [75(S11)-R^9]					31	84	93	92	97	98
EMFTILEEYFMYRGLLGLRRRRRRRRR (C-terminal nona-arginine (R9)) [77(S13)-R^9]					18	77	81	84	89	93
EMFTILEEYFMYRGLLGLRRRRRRRRRR (C-terminal nona-arginine (R9)) [76(S12)-R^9]					44	67	84	82	84	87
EMFTILEEYFMYRGLLRRRRRRRRR (C-terminal nona-arginine (R9)) [79(S14)-R^9]					0	77	86	85	93	97
FTILEEYFMYRGLLGLRIRRRRRRRRR (C-terminal nona-arginine (R9)) [103(S19)-R^9]						87	93	93	99	
ILEEYFMYRGLLGLRIRRRRRRRRR (C-terminal nona-arginine (R9)) [105(S21)-R^9]						52	62	62	91	
LEEYFMYGLLGLRIRRRRRRRRR (C-terminal nona-arginine (R9)) [106(S22)-R^9]						53	70	70	92	
MFTILEEYFMYRGLLGLRIRRRRRRRRR (C-terminal nona-arginine (R9)) [102(S18)-R^9]						48	72	72	91	
TILEEYFMYRGLLGLRIRRRRRRRRR (C-terminal nona-arginine (R9)) [104(S20)-R^9]						60	74	74	93	
